The values that follow are results of earlier work, collected in patent US20220273698A1, “MEDICINAL AND/OR PHARMACEUTICAL COMPOSITIONS FOR INTRAVESICAL INSTILLATION, PREPARATION AND USE THEREOF” (priority 2019, published 2022).

The conditions of data set [1]: oral medicine.
The conditions of data set [2]: taking PPS over a long time.

In the case of pentosan polysulfate sodium [Elmiron], the active agent absorbed in data set [1] is recorded as 5%. The side effect result in data set [2] is reported as “pigmentary maculopathy”.
